The record followed here is article PMC11091526 (International Journal for Parasitology: Drugs and Drug …, 2024).

Each structure is given as a SMILES string. A value given as a limit tells only on which side of the number the result lay.

For series [1], the system named is N. fowleri ATCC® 30,215™ trophozoites. The series can be described thus: In vitro activity against trophozoites, alamarBlue, 48 h. It counts as cell-based. The note with it: Naegleria fowleri, ATCC30, 48 h, read-out: N. fowleri ATCC 30,215 IC50. (Resazurin is reduced to fluorescent resorufin, in cell work by metabolically active cells.)
In series [2] the test system is N. fowleri ATCC® 30,808™ trophozoites. Described as above. The note with it: for S.I. ATCC 30,808 (selectivity index CC50/IC50): CC50 J774A.1 / IC50 ATCC 30,808 trophozoites; for IC50 / IC90: Naegleria fowleri; for IC50: ATCC30, 48 h, read-out: N. fowleri ATCC 30,808 IC50, trophozoite stage; for IC90: ATCC30, read-out: N. fowleri ATCC 30,808 IC90. Format: cell-based, Naegleria fowleri.

Series [3] has as its system N. fowleri ATCC® 30,808™ cysts. Description: microbe, parasite or virus in culture. The note with it: Naegleria fowleri, ATCC30, read-out: N. fowleri ATCC 30,808 IC50, cyst stage. Format: cell-based.
Series [4] has as its system N. fowleri (ATCC® 30,808™) trophozoites. Description: Chromatin condensation, Hoechst 33,342/Propidium Iodide double staining. Format: cell-based, Naegleria fowleri. The note with it: IC90, 24 h.
Series [5] shares this test system. Format: cell-based, Naegleria fowleri. The note with it: trophozoites treated with IC90 for 24 h.
Series [6] shares this test system. Description: Plasma membrane permeability, SYTOX Green. Format: cell-based, Naegleria fowleri. The note with it: IC90, 24 h.
Series [7] shares this test system. The series can be described thus: Mitochondrial membrane potential depolarization, JC-1. Format: cell-based, Naegleria fowleri. The settings on record: IC90, 24 h.

Turning to `CCCN1CCC=C(c2cc(-c3ccc(C)cc3)no2)C1` [PD-144418], in series [1], the IC50 amounted to 6.48 ± 2.83 µM. Besides, in series [2], the “S.I. ATCC 30,808 (selectivity index CC50/IC50)” value worked out at 10.35, the IC50 worked out at 4.71 ± 0.95 µM and the IC90 was found to be 17.4 ± 3.28 µM. Besides, in series [3], the IC50 stood at 10.4 ± 2.3 µM.
On to `CC(C)N1CCN(c2ccc(OCC3COC(Cn4cncn4)(c4ccc(Cl)cc4Cl)O3)cc2)CC1` (stereo not drawn) [TERCONAZOLE, terconazole], for which the IC50 in series [1] was found to be 0.81 ± 0.49 µM. Besides, in series [2], the “S.I. ATCC 30,808 (selectivity index CC50/IC50)” value worked out at 22.99, the IC50 came out at 3.68 ± 0.61 µM and the IC90 is 30.9 ± 2.38 µM. Further, the IC50 in series [3] came to 2.46 ± 0.28 µM.
Regarding `C[C@@H]1[C@H](O)[C@@H](C)/C=C/C=C/C=C/C=C/C=C/C=C/C=C/[C@H](O[C@@H]2O[C@H](C)[C@@H](O)[C@H](N)[C@@H]2O)C[C@@H]2O[C@](O)(C[C@@H](O)C[C@@H](O)[C@H](O)CC[C@@H](O)C[C@@H](O)CC(=O)O[C@H]1C)C[C@H](O)[C@H]2C(=O)O` [AMPHOTERICIN B, amphotericin B], the “Chromatin condensation (Hoechst 33,342 blue fluorescence)” value in series [4] is reported as “emission of blue fluorescence was observed”. Besides, the IC50 in series [1] came out at 0.16 ± 0.02 µM. Further, in series [2], the “S.I. ATCC 30,808 (selectivity index CC50/IC50)” value is given as at least 1650, the IC50 was found to be 0.12 ± 0.03 µM and the IC90 is 0.35 ± 0.02 µM. Also, the “Inhibition of ATP synthesis in comparison to the negative control” value in series [5] is over 98%. Moreover, the IC50 in series [3] came to 0.53 ± 0.03 µM. Also, in series [6], the “Plasma membrane permeability (SYTOX Green fluorescence)” value is listed as “emitted green fluorescence”. For the same molecule, the “Mitochondrial membrane potential (JC-1 fluorescence)” value in series [7] is “green fluorescence emission was also shown”.
Regarding `CCCCCCCCCCCCCCCCOP(=O)([O-])OCC[N+](C)(C)C` [MILTEFOSINE, miltefosine], the “S.I. ATCC 30,808 (selectivity index CC50/IC50)” value in series [2] was determined as 3.3. Also, the IC50 in series [3] worked out at 21.5 ± 2.62 µM.

One may read the IC50 as the midpoint of a concentration-inhibition curve. In general, IC90 refers to the concentration at which the effect reaches the 90% level.
